Source: US8394377B2, “Methods for treating cancer using combination therapy” (The Regents of the University of Colorado, priority 2008, dated 2013)

Key:
Assay type in all cases: cell-based
[1] = Percent viability of treated MCF7 cells (flow cytometry); conditions: human, 5 mg/ml DCA, 0.1 mg/ml Etomoxir, or both, time point (24 or 48 hrs) not given
Experimental: (§1) 1. Cell Culture Conditions: The MCF7 and MCF7 ADR cell lines were purchased from American Type Culture Collection, were thawed, and grown in RPMI 1640 medium supplemented with standard supplements, including 10% fetal calf serum, gentamycin, penicillin, streptomycin, sodium pyruvate, HEPES buffer, 1-glutamine, and 2-ME.
(§2) 2. Methods: Cells were plated into a 12 well plate with 4 mis total volume containing approximately 0.6×10^6/well for MCF7 cells and 0.8×10^6/well for MCF7 ADR cells. Treatment groups included no treatment as control; 5 mg/ml Dichloroacetate; 0.1 mg/ml Etomoxir; Both 5 mg/ml DCA and 0.1 mg/ml Etomoxir.
(§3) The cells were incubated at 37° C. in an atmosphere containing 5% CO2 and approximately 92% humidity. The cells were incubated for 24 and 48 hours. At each time point, the cells from that experimental time were harvested and stained for flow cytometric analysis of cell surface expression of HER-2/neu using anti-human HER-2 Fitc. (BD biosciences, Catalogue #340553).

[2] = Percent viability of treated MCF7 ADR cells (flow cytometry); conditions: human, 5 mg/ml DCA, 0.1 mg/ml Etomoxir, or both, time point (24 or 48 hrs) not given
Experimental: as §1, §2, §3

HER-2 on MCF7 ADR cells = assay: Cell surface HER-2 expression by flow cytometry with FITC anti-human HER-2
Experimental: as §1, §2, §3
Harvested cells were stained using standard fixed staining procedure that called for a 1:5 dilution of Fitc-anti-human HER-2 or isotype control. […] Samples were acquired and analyzed on a Coulter Excel Flow Cytometer. […]
The results in the Figures are expressed in histogram analyses. The Y axis represents cell number of the 5000 live cells versus the X axis which is a reflection of relative Fitc fluorescence. […]

SMILES | viability [1] | viability [2] | HER-2 expression (HER-2 on MCF7 ADR cells; HER-2 lo/negative MCF7-Adr cells, as shown in the figures) | HER-2 cell surface expression (HER-2 on MCF7 ADR cells; MCF7 ADR cells, 48 hours, 0.1 mg/ml Etomoxir)
O=C(O)C(Cl)Cl [DCA, Dichloroacetate] | 42% | 58% |  | 
CCOC(=O)C1(CCCCCCOc2ccc(Cl)cc2)CO1 (stereo not drawn) [Etomoxir, 2-(6-(4-chlorophenoxy)-hexyl)-oxirane-2-carboxylic acid ethyl ester] | 78% | 66% | major increase | noticeable Increase
